Source: patent publication US6902724B1, “Enhanced efficacy basic aluminum halides, antiperspirant active compositions and methods for making” (Reheis, Inc., priority 2004, dated 2005)

How the values were obtained:
[1] = in vivo; cited from earlier work
[2] = In vitro model: pore blocking of Millipore filter (IVMI); conditions: 0.185 molar aluminum solution; pH 10 buffer; 0.25% NaCl; 100 mm H2O; inverse relation to % sweat reduction
Description: The apparatus and test protocol are based on method described by Reller and Leudders (Reller, H. H. and Leudders, W. L., Advances in Modern Toxicology, 4: 1-59 (1977)) and EP 0586235 B1 disclosures of which are incorporated herein by reference. Reller and Leudders described a millipore system which they used to measure the obstruction caused by the neutralization of various metal salts. They then compared their in vitro findings with those obtained for antiperspirant efficacy of the salts which had been tested in humans and found a reasonable correlation. A modified version of the apparatus and protocol described in […] were developed and used to determine the relative in vitro efficacy of antiperspirant actives. The system is shown schematically in FIG. 2 of the accompanying drawings. The system consists of four major components, namely the pressure control unit 1, the sweat reservoir II, the cell III and the measuring system IV.
The pressure control unit I consisted of a standard nitrogen gas cylinder 1 equipped with a pressure regulator 2 and connected to an on/off isolation valve 3 and pressure relief safety valve 4. The on/off valve 3 isolates the nitrogen cylinder 1 from the rest of the system. The majority of connections were made using ¼″ stainless steel tubing and swage lock fittings. […]

[Cl][Al]([Cl])[Cl] [aluminum chloride solution, aluminum chloride]
antiperspirancy among the various aluminum salts [1]: highest antiperspirancy | IVMI (In Vitro Model Index) [2]: lowest
